The source of these data is ChEMBL document CHEMBL1201862, “PubChem BioAssay data set” (2004).

Some test systems named below: ACHN; K562; HOP-92; SF-295; MDA-MB-435; SNB-19; DU-145; T47D; SF-539; MCF7; MDA-N; SR; NCI/ADR-RES; M19-MEL; DLD-1; HOP-18; KM-20L2; DMS-273; DMS-114; LXFL 529.
What all share (assay): inhibition of tumour cell growth, NCI panel, 48 h

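Compound exposure: 48 hours, 5 concentrations, 96-well plates. At the GI50, growth is halved.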 Calls of active or inactive are those of the source. No stated cut-off is given here; in the data, active = GI50 up to about 1.1 µM and inactive = higher.

Take `NC(CSC1(c2ccc(Cl)cc2)c2ccccc2-c2ccccc21)C(=O)O` (configuration not stated): the GI50 in the assay on ACHN was 22.8 µM (inactive); in the assay with K562, 26.2 µM (inactive); with HOP-92 it was 20.7 µM (inactive); in the assay on SF-295, 15.3 µM (inactive); in the assay on MDA-MB-435, 14.4 µM (inactive); with SNB-19, 21.3 µM (inactive). Besides, the GI50 is 34.5 µM (inactive) with DU-145; 29 µM (inactive) with T47D; 20.9 µM (inactive) in the assay with SF-539; 17.6 µM (inactive) in the assay with MCF7; > 100 µM (inactive) in the assay on MDA-N; 15.1 µM (inactive) in the assay with SR. In the assay with NCI/ADR-RES, the GI50 is 39.1 µM (inactive).

With `C=C1C(=O)OC2C=C(C)CC3C=C(CCC=C(C)CCC12)C(=O)O3` (configuration not stated), the GI50 in the assay on M19-MEL was 58.3 µM (inactive); in the assay with K562, 55.8 µM (inactive); with HOP-92, 52.8 µM (inactive); in the assay on SF-295 it was 79.4 µM (inactive); in the assay on SNB-19, 122 µM (inactive); in the assay with DLD-1 it was 54.5 µM (inactive). The GI50 is 84.5 µM (inactive) in the assay on SF-539; 47.5 µM (inactive) with MCF7; 51.3 µM (inactive) in the assay on HOP-18; 52.7 µM (inactive) in the assay with KM-20L2; 68.1 µM (inactive) in the assay on DMS-273; 65.9 µM (inactive) in the assay with DMS-114. In addition, the GI50 in the assay with NCI/ADR-RES was 62.8 µM (inactive).

As to `CC(C)(C)OC(=O)NC1CCC(C(C)(C)C)CC1` (configuration not stated), the GI50 is 31.3 µM (inactive) with M19-MEL; 51.1 µM (inactive) in the assay with K562; 26.5 µM (inactive) with SF-295; 95.7 µM (inactive) with SNB-19; > 100 µM (inactive) with DLD-1; > 100 µM (inactive) in the assay with SF-539. For the same compound, the GI50 with MCF7 was 44.5 µM (inactive); with HOP-18 it was > 82.8 µM (inactive); in the assay with KM-20L2, 37.9 µM (inactive); in the assay with DMS-273, > 51.2 µM (inactive); in the assay on DMS-114, 34 µM (inactive); in the assay with NCI/ADR-RES it was 99.1 µM (inactive).

On to `CO[C@H]1ON=C(c2c(C)cc(C)cc2C)[C@@H]1C1(c2ccccc2)ON=C(c2c(C)cc(C)cc2C)O1` (some centres not stated), for which the GI50 in the assay with M19-MEL, in the assay on ACHN, in the assay on K562, in the assay with LXFL 529, in the assay with HOP-92 and with SF-295 was > 100 µM (inactive) each time. Moreover, the GI50 with SNB-19, in the assay on DLD-1, in the assay on SF-539, in the assay with HOP-18, with KM-20L2 and in the assay on SR was > 100 µM (inactive) in each case. The GI50 in the assay with DMS-273 is > 100 µM (inactive).

For the compound `[O-][S+]1[C@H](c2ccccc2)c2c(-c3ccccc3)sc(-c3ccccc3)c2[C@@H]1c1ccccc1` (some centres not stated), the GI50 is > 100 µM (inactive) with M19-MEL; 5.89 µM (inactive) in the assay with ACHN; 6.44 µM (inactive) in the assay with K562; > 100 µM (inactive) in the assay on LXFL 529; 2.96 µM (inactive) in the assay with HOP-92; > 100 µM (inactive) in the assay on SF-295. Moreover, the GI50 in the assay on SNB-19 is 77.1 µM (inactive); in the assay on DLD-1, 33 µM (inactive); with SF-539 it was > 100 µM (inactive); in the assay with HOP-18, 11.4 µM (inactive); in the assay on KM-20L2, 5.79 µM (inactive); in the assay on DMS-273, > 100 µM (inactive). In addition, in the assay on DMS-114, the GI50 was 10.2 µM (inactive).

For the compound `CC1(C)CC[C@]2(C(=O)O)CC[C@]3(C)C(=CC[C@@H]4[C@@]5(C)CC[C@@H]6OC(C)(C)OC[C@@]6(C)[C@@H]5CC[C@]43C)[C@H]2C1`, the GI50 in the assay on ACHN was 3.24 µM (inactive); with K562, 14.9 µM (inactive); in the assay with SF-295, 5.18 µM (inactive); with MDA-MB-435, 8.55 µM (inactive); in the assay on SNB-19, 17.6 µM (inactive); in the assay on DU-145, 9.86 µM (inactive). In addition, the GI50 with T47D is 13.9 µM (inactive); with SF-539, 15.1 µM (inactive); in the assay on MCF7, > 10 µM (inactive); in the assay on MDA-N it was 13.3 µM (inactive); in the assay on SR, 10.1 µM (inactive); in the assay on NCI/ADR-RES, 16.9 µM (inactive).

In the case of `CC(C)(C)OC(=O)NC(Cc1c[nH]cn1)C(=O)N1CCCC1C(N)=O` (configuration not stated), the GI50 in the assay with ACHN, in the assay on K562, with HOP-92, in the assay with SF-295, in the assay with MDA-MB-435 and in the assay with SNB-19 was > 100 µM (inactive) throughout. The GI50 in the assay with DU-145, with T47D, in the assay with SF-539, in the assay on MCF7, with MDA-N and in the assay on SR was > 100 µM (inactive) each time. Besides, in the assay on NCI/ADR-RES, the GI50 is > 100 µM (inactive).

Consider `C=CCNC(=O)CN(CC(=O)OC)C1CCCCC1N(CC(=O)OC)CC(=O)OC` (configuration not stated), for which the GI50 with ACHN, in the assay with K562, in the assay with HOP-92, in the assay with SF-295, with MDA-MB-435 and in the assay on SNB-19 was > 100 µM (inactive) throughout. The GI50 in the assay with DU-145, in the assay with T47D, with SF-539, in the assay with MCF7, in the assay with MDA-N and in the assay with NCI/ADR-RES was > 100 µM (inactive) each time.

Regarding `O=C1C(Cl)N(c2ccccc2Cl)C1c1c[nH]c2ccccc12` (configuration not stated), the GI50 in the assay with M19-MEL, in the assay with K562, with HOP-92, with SF-295, with SNB-19 and in the assay with SF-539 was > 100 µM (inactive) in each case. Moreover, the GI50 in the assay with KM-20L2, in the assay on SR and in the assay on DMS-114 was > 100 µM (inactive) in each case.

With `O=C(Nc1cccc2ccccc12)Oc1ccccc1C1CCCCC1`, the GI50 is 22.3 µM (inactive) in the assay with M19-MEL; 24.2 µM (inactive) in the assay with K562; 18.3 µM (inactive) with LXFL 529; 15.8 µM (inactive) in the assay with HOP-92; 16.3 µM (inactive) in the assay on SF-295; 53.6 µM (inactive) in the assay on SNB-19. For the same compound, the GI50 in the assay with DLD-1 is 15.2 µM (inactive); with SF-539, 17.5 µM (inactive); in the assay on HOP-18, 16.3 µM (inactive); with KM-20L2 it was 20.9 µM (inactive); with SR, 17.5 µM (inactive); in the assay on DMS-273, 21.2 µM (inactive). Moreover, the GI50 in the assay with DMS-114 was 19.9 µM (inactive).

As to `CNC(=O)N(C)COC`, the GI50 in the assay on M19-MEL, in the assay on ACHN, in the assay on LXFL 529, with SF-295, with SNB-19 and with DLD-1 was > 100 µM (inactive) in each case. The GI50 in the assay with SF-539, in the assay on HOP-18, with KM-20L2, with SR and in the assay with DMS-114 was > 100 µM (inactive) each time.

Take `CC(=O)OC1C(O)C(C)OC(OC(=O)C2CCC3C(C2)OC2(CC(OC(=O)/C=C/c4ccccc4)C(C)CO2)C32CO2)C1OC1OC(C)C(O)C(O)C1O` (configuration not stated): the GI50 in the assay on M19-MEL was 0.0332 µM (active); in the assay on K562, 0.0383 µM (active); in the assay with HOP-92 it was 0.0325 µM (active); in the assay on SF-295, 0.0776 µM (active); in the assay on SNB-19 it was 0.0399 µM (active); in the assay on DLD-1 it was 0.335 µM (active). In addition, the GI50 in the assay with SF-539 is 0.0448 µM (active); in the assay on MCF7 it was 0.0325 µM (active); in the assay with HOP-18, 0.113 µM (active); in the assay with KM-20L2 it was 0.0425 µM (active); in the assay with DMS-273, 0.0416 µM (active); with DMS-114 it was 0.0371 µM (active). The GI50 in the assay with NCI/ADR-RES is 21.7 µM (inactive).

For the compound `Cc1cn(Cc2cn(CC3OC(n4cc(C)c(=O)[nH]c4=O)CC3O)nn2)c(=O)[nH]c1=O` (configuration not stated), the GI50 with ACHN, in the assay with SF-295, with MDA-MB-435, with SNB-19, in the assay with DU-145 and in the assay on T47D was > 100 µM (inactive) in each case. The GI50 in the assay with SF-539, with MCF7, in the assay with MDA-N and in the assay on NCI/ADR-RES was > 100 µM (inactive) throughout.

As to `CCOc1ccc2nc(NC(=O)C(=O)C(C(=O)c3ccccc3F)C3OC(=O)c4ccccc43)sc2c1` (configuration not stated), the GI50 is 12.1 µM (inactive) in the assay on M19-MEL; 33.2 µM (inactive) with ACHN; 21.8 µM (inactive) in the assay on K562; 19.7 µM (inactive) in the assay with LXFL 529; 14.5 µM (inactive) in the assay with SNB-19; 25.3 µM (inactive) in the assay with DLD-1. Also, the GI50 in the assay with SF-539 is 10.3 µM (inactive); with KM-20L2, 27.9 µM (inactive); in the assay with SR, 11.7 µM (inactive); with DMS-273, 19.1 µM (inactive).

In the case of `O=C(O)CN1CCN(CC(=O)O)CCN(CC(=O)O)CC1`, the GI50 was > 100 µM (inactive) with ACHN; 2.31 µM (inactive) in the assay with K562; 38.2 µM (inactive) with HOP-92; 37.5 µM (inactive) in the assay on SF-295; 30.8 µM (inactive) with MDA-MB-435; > 100 µM (inactive) with SNB-19. Also, the GI50 was > 100 µM (inactive) with DU-145; > 100 µM (inactive) in the assay with T47D; > 25.3 µM (inactive) in the assay with SF-539; 5.65 µM (inactive) with MCF7; 3.7 µM (inactive) in the assay on MDA-N; 3.27 µM (inactive) with SR.

Consider `C=C(/C=C/C=C(\C)CCC=C(C)C)[C@@H]1CC[C@]2([C@H](CCCO)/C(=C(/C)C=O)CC[C@]2(C)O)[C@@H]1O`, for which the GI50 is > 10 µM (inactive) with M19-MEL; > 100 µM (inactive) in the assay with ACHN; 11.2 µM (inactive) in the assay on K562; 19.1 µM (inactive) in the assay on LXFL 529; < 0.01 µM (active) in the assay with HOP-92; 15.6 µM (inactive) with SF-295. Also, the GI50 in the assay with SNB-19 was 22.2 µM (inactive); in the assay with DLD-1, 18.4 µM (inactive); with SF-539, 12.6 µM (inactive); in the assay on HOP-18, 23.9 µM (inactive); with KM-20L2, 29.3 µM (inactive); in the assay with SR it was 18.8 µM (inactive). Besides, the GI50 in the assay with DMS-273 was 14.6 µM (inactive).
